# Values quoted from earlier work, collected in patent US20250161231A1, “LUTEIN FOR USE IN INHIBITING MAST CELL DEGRANULATION” (N.V. NUTRICIA, priority 2022, published 2025).
# Test system: human mast cells
# Settings: literature, Int Arch Allergy Immunol 113, 335-336, 1997
smiles,measurement,value
CC1=C(/C=C/C(C)=C/C=C/C(C)=C/C=C/C=C(C)/C=C/C=C(C)/C=C/C2=C(C)CCCC2(C)C)C(C)(C)CCC1 [beta-carotene],inhibition of histamine release from human mast cells,dose-dependent inhibition
